In data set [1] the test system is T4 lymphocytes (CEM cell line). Kind of data set: NCI in vitro anti-HIV screen, growth inhibition of uninfected CEM cells (XTT). Conditions: for IC50: read-out: IC50 (50% inhibitory concentration); for cytotoxicity (statement): NCI anti-HIV screen, CEM cells. It counts as cell-based. The procedure: (§1) The assay includes the killing of T4 lymphocytes by HIV. Pursuant to the test, small amounts of HIV are added to cells, and a complete cycle of virus reproduction is necessary to obtain the required cell killing. Agents that interact with virions, cells, or virus gene-products to interfere with viral activities will protect cells from cytolysis. The system is thus designed to detect anti-HIV activity. However, compounds that degenerate or are rapidly metabolized in the culture conditions may not show activity in this screen. All tests are compared with at least one positive (e.g., AZT-treated) control done at the same time under identical conditions.
(§2) 1. The candidate agent is dissolved in dimethyl sulfoxide (unless otherwise instructed), then diluted 1:200 in cell culture medium. Further dilutions (half-log10) are prepared before adding to 96-well microtiter plates.
(§3) 2. T4 lymphocytes (CEM cell line) are exposed to HIV at a virus-to-cell ratio of approximately 0.05 and are plated along with non-infected control cells into drug-containing wells or wells with medium alone.
(§4) 3. Cultures are incubated at 37° in a 5% carbon dioxide atmosphere for 6 days.
(§5) 4. The tetrazolium salt, XTT, is added to all wells, and cultures are incubated to allow formazan color development by viable cells.
(§6) 5. […] are analyzed spectrophotometrically to quantitate formazan production and, in addition, are viewed microscopically for detection of viable cells and confirmation of protective activity.
(§7) 6. Drug-treated virus-infected cells are compared with drug-treated non-infected cells and with other appropriate controls (untreated infected and untreated non-infected cells, drug-containing wells without cells, etc.) on the same plate.
(§8) 7. Data are reviewed in comparison with other tests performed at the same time, and a determination about activity is made.
Survival values of this parameter less then 50% are considered acceptable in the current protocol.
(Tetrazolium assays rely on reduction of a dye to a coloured formazan, in cell work by metabolically active cells.)

The next data set concerns HIV. Kind of data set: NCI in vitro anti-HIV screen (XTT soluble-formazan assay, protection of HIV-infected CEM cells). It counts as cell-based. Conditions: for EC50: approximate values, one value per run; for anti-HIV effect (statement): NCI anti-HIV screen, in vitro, CEM cells; for TI50 (IC/EC), therapeutic index: ratio IC50/EC50 of the same run.
Excerpt: as §1, with “The National Cancer Institute's procedure for testing for agents active against Human Immunodeficiency Virus (HIV) (Weislow, O. W. et al, "New soluble-formazan assay for HIV-1 cytopathic effects: application to high-flux screening of synthetic and natural products for AIDS-antiviral activity," J. Natl. Cancer Inst., 81, 577-586, 1989) is designed to detect agents acting at any stage of the virus reproductive cycle. The assay” for “The assay”
as §2, §3, §4, §5, §6, §7, §8
Approximate values for 50% effective concentration (EC50) (protection in infected cells), 50% inhibitory concentration (IC50) and the therapeutic index (IC50 /EC50) have been calculated for each test and are provided in the tables of each Example.
Examples 1, 6 and 8 compounds, respectively, against the measured test values expressed as a percentage of the uninfected, untreated control values. The solid line depicts the percentage of surviving HIV-infected cells treated with sample (at the indicated concentration) relative to uninfected, untreated controls. The solid line expresses the in vitro anti-HIV activity of the compound of the tested compound. The dashed line depicts the percentage of surviving uninfected cells treated with the compound of the Example relative to the same uninfected, untreated controls. The dashed line expresses the in vitro growth inhibitory properties of the compound of the Example. The viral cytopathic effect of a compound of each Example is indicated by a combination of dashes and dots. […] Survival values of this parameter less then 50% are considered acceptable in the current protocol.

The mark [2] stands for this setting: Homo sapiens, CCRF-CEM, 144 h, drug-treated uninfected CEM cells, 6 days, XTT, approximate values, one value per run.
Setting [3] is: drug-treated uninfected CEM cells, 6 days, XTT, approximate values, one value per run.
The mark [4] stands for this setting: Human immunodeficiency virus 1, CCRF-CEM, 144 h, read-out: EC50 (50% effective concentration, protection in infected cells), HIV-infected CEM cells, 6 days, XTT.
Where [5] appears, read: HIV-infected CEM cells, 6 days, XTT, read-out: EC50 (50% effective concentration, protection in infected cells).
Setting [6] is: Human immunodeficiency virus 1, CCRF-CEM, 144 h, HIV-infected CEM cells, 6 days, XTT, read-out: EC50 (50% effective concentration, protection in infected cells).

Where “and” joins values, the source holds several entries; their conditions need not be identical. Equal entries are not always repeated. Where two headings read alike, the source gives them in different places.

On to `CCCCCC=C(c1cc(Cl)c(OC)c(C(N)=O)c1)c1cc(Cl)c(OC)c(C(N)=O)c1` [Formula XVI, 1,1-di(3'-carbamoyl-5'-chloro-4'-methoxy)phenyl-1-heptene], for which the IC50 in data set [1] (setting [2]) is 17.4 µM; in data set [1] (setting [3]) it was 17.2 µM and 16.3 µM and 13.4 µM.
`CC(C)CCC[C@@H](C)[C@H]1CC[C@H]2[C@@H]3CC[C@H]4C[C@@H](CCCC(c5cc(Cl)c(O)c(C(=O)O)c5)c5cc(Cl)c(O)c(C(=O)O)c5)CC[C@]4(C)[C@H]3CC[C@]12C` [Formula VI, (5α)-3β-[4,4-Di(3'-ammoniumcarboxy-5'-chloro-4'-hydroxy)phenyl-1-butyl]cholestane]: the EC50 in the data set with HIV (setting [4]) is 17 µM. In addition, in the data set with HIV, the “anti-HIV effect (statement)” value is given as “greatest effect on inhibiting HIV-infected cells, while having a lesser effect on uninfected cells”; the “TI50 (IC/EC), therapeutic index” value is > 1.80 × 10^+1 and > 2.10 × 10^+1 and > 1.30 × 10^+1 and > 1.20 × 10^+1. The EC50 in the data set with HIV (read-out: EC50 (50% effective concentration, protection in infected cells), HIV-infected CEM cells, 6 days, XTT) is 15 µM and 23 µM and 25 µM. For the same compound, the IC50 in data set [1] (Homo sapiens, CCRF-CEM, 144 h) was over 310 µM.
On to `CCCCCC=C(c1cc(Cl)c(OC)c(C(=O)OC)c1)c1cc(Cl)c(OC)c(C(=O)OC)c1` [Formula XXVI, di(3'-carbomethoxy-5'-chloro-4'-methoxy)phenyl-1-heptene], for which the results for the IC50 in data set [1] (setting [2]) and in data set [1] (setting [3]) were over 29.1 µM and over 28.2 µM, respectively.
Consider `COc1c(Cl)cc(C(=CCC[C@H]2CC[C@@]3(C)[C@@H](CC[C@@H]4[C@@H]3CC[C@]3(C)[C@@H]([C@H](C)CCCC(C)C)CC[C@@H]43)C2)c2cc(Cl)c(OC)c(C(=O)O)c2)cc1C(=O)O` [Formula V], for which the “anti-HIV effect (statement)” value in the data set with HIV was “greatest effect on inhibiting HIV-infected cells, while having a lesser effect on uninfected cells”. Besides, the IC50 in data set [1] (Homo sapiens, CCRF-CEM, 144 h) was over 300 µM.
Take `CCCCCCCCCCCCCCCCC(c1ccc(O)c(C(=O)O)c1)c1ccc(O)c(C(=O)O)c1` [Formula XXII]: the EC50 with HIV (setting [5]) came to 3.9 µM. Besides, the “TI50 (IC/EC), therapeutic index” value in the data set on HIV was 1.56 × 10^0 and 3.06 × 10^+1 and 3.05 × 10^+1. Besides, the IC50 in data set [1] (setting [3]) is 51.4 µM and 119 µM.
Take `CCCCCCCCCC=C(c1cc(Cl)c(OC)c(C(=O)O)c1)c1cc(Cl)c(OC)c(C(=O)O)c1` [Formula XXVII, 1,1-di(3'-ammoniumcarboxy-5'-chloro-4'methoxy) phenyl-1-undecene]: the IC50 in data set [1] (setting [2]) was 149 µM; in data set [1] (setting [3]), 166 µM and 169 µM.
For the compound `CCCCCCCCCCC(c1ccc(O)c(C(=O)O)c1)c1ccc(O)c(C(=O)O)c1` [Formula XVIII], the EC50 in the data set with HIV (setting [6]) came to 33.2 µM. Besides, the “TI50 (IC/EC), therapeutic index” value in the data set with HIV is 2.55 × 10^0. The IC50 in data set [1] (setting [2]) was found to be 84.6 µM.
Regarding `CC(CCC=C(c1cc(Cl)c(O)c(C(=O)O)c1)c1cc(Cl)c(O)c(C(=O)O)c1)C1CC[C@H]2[C@@H]3CC[C@H]4CCCC[C@]4(C)[C@H]3CC[C@]12C` (some centres unmarked) [Formula IX], the IC50 in data set [1] (setting [3]) is > 59 µM and > 69 µM and 79 µM.
Consider `CCCCCC=C(c1cc(Br)c(OC)c(C(=O)OC)c1)c1cc(Br)c(OC)c(C(=O)OC)c1` [Formula XII, 1,1-di(5'-bromo-3'-carbomethoxy-4'-methoxy)phenyl-1-heptene], for which the “anti-HIV effect (statement)” value is listed as “greatest effect on inhibiting HIV-infected cells, while having a lesser effect on uninfected cells” with HIV and “most effective compounds studied in terms of prevention of the cytopathic effect of HIV in CEM lymphocytes” in the data set on HIV (listed as structure XII). In addition, the IC50 in data set [1] (setting [2]) is over 8.95 µM.
As to `C[C@H](CCC=C(c1cc(Cl)c(O)c(C(=O)O)c1)c1cc(Cl)c(O)c(C(=O)O)c1)[C@H]1CC[C@H]2[C@@H]3CC[C@@H]4CC(F)(F)CC[C@]4(C)[C@H]3CC[C@]12C` [Formula X, (5β)-3,3-difluoro-17-[5,5-di(3-ammoniumcarboxy-5-chloro-4-hydroxy)phenyl-1-methyl-4-pentenyl]androstane], in the data set with HIV (setting [4]), the EC50 worked out at 24 µM. Besides, the “TI50 (IC/EC), therapeutic index” value in the data set on HIV is reported as 1.80 × 10^0. For the same compound, the IC50 in data set [1] (setting [2]) was 41 µM.
Turning to `CCCCCCCCCCCCCCCC=C(c1cc(Cl)c(O)c(C(=O)O)c1)c1cc(Cl)c(O)c(C(=O)O)c1` [Formula XIV, 1,1-di(3'-ammoniumcarboxy-5'-chloro-4'-hydroxy)phenyl-1-heptadecene], in the data set with HIV (setting [6]), the EC50 amounted to 4.62 µM. Also, the “TI50 (IC/EC), therapeutic index” value in the data set on HIV is reported as > 7.57 × 10^0. In addition, the IC50 in data set [1] (setting [2]) was over 35 µM.
For `COc1c(Cl)cc(C(=Cc2c(F)c(F)c(F)c(F)c2F)c2cc(Cl)c(OC)c(C(=O)O)c2)cc1C(=O)O` [Formula XXV], the EC50 with HIV (setting [5]) was 102 µM and 176 µM; in the data set with HIV (setting [6]), 140 µM. Also, the IC50 was 434 µM in data set [1] (setting [2]); 552 µM and 412 µM in data set [1] (setting [3]).
Regarding `CCCCCC=C(c1cc(Br)cc(C(=O)O)c1OC)c1cc(Br)cc(C(=O)O)c1OC` [Formula XXI], the EC50 is 69.3 µM with HIV (setting [5]) and 97.1 µM with HIV (setting [6]). Moreover, the “TI50 (IC/EC), therapeutic index” value in the data set on HIV was 1.80 × 10^0 and 3.52 × 10^0. In addition, the IC50 in data set [1] (setting [2]) worked out at 175 µM; in data set [1] (setting [3]), 244 µM.
As for `O=C(O)c1cc(C(=CCCBr)c2cc(Cl)c(O)c(C(=O)O)c2)cc(Cl)c1O` [Formula XVII], the EC50 in the data set with HIV (setting [5]) was 122 µM and 121 µM and 95.1 µM; in the data set on HIV (setting [6]), 136 µM. Further, the “TI50 (IC/EC), therapeutic index” value with HIV was 1.58 × 10^0 and 1.93 × 10^0 and 1.50 × 10^0 and 2.71 × 10^0. Moreover, the IC50 is 214 µM in data set [1] (setting [2]); 237 µM and 181 µM and 258 µM in data set [1] (setting [3]).
Take `CCCCCCCCCC=C(c1cc(Cl)c(O)c(C(=O)O)c1)c1cc(Cl)c(O)c(C(=O)O)c1` [Formula XIII, 1,1-di(3'-ammoniumcarboxy-5'-chloro-4'-hydroxy)phenyl-1-undecene]: in the data set on HIV (setting [6]), the EC50 came out at 37.3 µM. The “TI50 (IC/EC), therapeutic index” value with HIV was > 1.32 × 10^0. The IC50 in data set [1] (setting [2]) was over 49.1 µM.
Take `CCCCCCCCCC=C(c1cc(Br)cc(C(=O)O)c1OC)c1cc(Br)cc(C(=O)O)c1OC` [Formula XXIII, 1,1-[di-(3'-ammoniumcarboxy-5'-bromo-2'methoxy)phenyl]-1-undecene]: the IC50 was 88.9 µM in data set [1] (setting [2]); 79.5 µM and 68.3 µM and 69.8 µM in data set [1] (setting [3]). Further, the “cytotoxicity (statement)” value in data set [1] is given as “cytotoxic”.
For the compound “(5α)-3β-[4,4-di(5'-bromo-4'-methoxy-3'-methoxycarbonyl)phenyl-1-buten-3-yl]cholestane [Formula VII]”, the IC50 in data set [1] (setting [3]) is over 280 µM.
Consider `CCCCCCCCCCCCCCCCCCCCCCCCCCCCCC=C(c1cc(Cl)c(O)c(C(=O)O)c1)c1cc(Cl)c(O)c(C(=O)O)c1` [Formula XI, 1,1-di(3'-ammoniumcarboxy-5'-chloro-4'hydroxy) phenyl-1-untriacontene], for which the EC50 in the data set on HIV (setting [5]) was 16.3 µM and 11 µM and 9.3 µM; in the data set on HIV (setting [6]), 13.3 µM. The “anti-HIV effect (statement)” value in the data set on HIV is on record as “greatest effect on inhibiting HIV-infected cells, while having a lesser effect on uninfected cells”. For the same compound, the “TI50 (IC/EC), therapeutic index” value in the data set with HIV is > 1.67 × 10^+1 and > 1.36 × 10^+4 and > 1.90 × 10^+1 and > 2.40 × 10^+1. Moreover, the IC50 in data set [1] (setting [2]) was over 222 µM; in data set [1] (setting [3]), over 220 µM.
As for `CCCCCCCCCCCCCCCC=C(c1cc(Cl)c(OC)c(C(=O)O)c1)c1cc(Cl)c(OC)c(C(=O)O)c1` [Formula XXIV, 1,1-di(3'-carboxy-5'-chloro-4'-methoxy)phenyl-1-heptadecene], the IC50 in data set [1] (setting [2]) amounted to 26.6 µM; in data set [1] (setting [3]), 25.9 µM. Besides, the “cytotoxicity (statement)” value in data set [1] was “cytotoxic”.

The values above are taken from patent US5439899A, “Cosalane and related compounds having activity against aids and aids-related infections” (priority 1993, dated 1995).
